Data from patent publication US8603497B2, “Composition for local anesthesia” (National University Corporation Okayama University, priority 2008, dated 2013).
Counter-ions that a name gives are not always drawn.

Columns and labels:
Hartley male guinea pigs [1] = test: guinea pig wheal method (durability of local anesthetic action); conditions: for ED50 for adrenaline alone (local anesthesia enhancing action) / ED50 for dexmedetomidine hydrochloride alone (local anesthesia enhancing action): added alone to lidocaine hydrochloride; for ED50 for adrenaline alone (local anesthesia enhancing action): calculated from scores of Solutions 6 to 10; for theoretical ED50 value in combined use / ED50 value obtained in the experiment in combined use: combined use of adrenaline and dexmedetomidine; for theoretical ED50 value in combined use: isobologram, mean ±95% confidence interval in brackets; for ED50 value obtained in the experiment in combined use: significantly different from theoretical, P<0.05 (T-test); for ED50 for dexmedetomidine hydrochloride alone (local anesthesia enhancing action): calculated from scores of Solutions 1 to 5
Protocol: A guinea pig wheal method was employed. The hair on the back of Hartley male guinea pigs each having a body weight of 500 to 600 g was clipped. After that, 0.1 ml each of Solutions 1 to 5 blended as described above was injected intracutaneously, and the surroundings of wheals, which developed in the skin, were marked with a felt-tipped pen. Pricks were applied on six sites inside each wheal with a fixed-weight sensory needle. […] The pricks were applied every 5 minutes until 60 minutes, and the total of the number of times that an anesthetic effect was observed was used as a score to assess the durability of a local anesthetic action. A 50% effective dose (effective dose 50: ED50) for dexmedetomidine was calculated based on a score for each of Solutions 1 to 5.
Each score for Solutions 16 to 21 and Solutions 22 to 27 was calculated to assess a local anesthetic effect.
Each score for Solutions 28 to 31 was calculated to assess a local anesthetic effect.

Hartley male guinea pigs [2] = test: peripheral blood flow by Doppler rheometer after intradermal injection; assay type: in vivo, guinea pig; conditions: 0.1 ml intradermal, every 5 minutes until 30 minutes, ratio to baseline; FIG. 2
Protocol: The hair of the back was clipped and then three sites around the center of the back were marked with a felt-tipped pen at sufficient intervals. A blood flow value was measured by attaching a Doppler rheometer (ALF21RD; ADVANCE CO., LTD., Tokyo) probe and was used as a baseline value (Time 0). […] 0.1 ml each of Solutions 32, 33, and 34 obtained by the blending was intradermally injected into the three sites and the Doppler rheometer probe was fixed on the same sites. A blood flow value was time-dependently measured at an interval of 5 minutes after the injection until 30 minutes. The ratio of the blood flow value to the baseline value (0 to 1.0) was expressed as a peripheral blood flow degree and a time-dependent change at each of the injection sites was determined.

Row | Structure (SMILES) | ED50 for adrenaline alone (local anesthesia enhancing action) (Hartley male guinea pigs [1]) [nM] | ED50 for adrenaline alone (local anesthesia enhancing action) (Hartley male guinea pigs [1]; listed as Adrenaline) [nM] | theoretical ED50 value in combined use (Hartley male guinea pigs [1]) [nM] | ED50 value obtained in the experiment in combined use (Hartley male guinea pigs [1]) [nM] | peripheral blood flow / peripheral vasoconstriction (Hartley male guinea pigs [2]) | ED50 for dexmedetomidine hydrochloride alone (local anesthesia enhancing action) (Hartley male guinea pigs [1]) [nM] | ED50 for dexmedetomidine hydrochloride alone (local anesthesia enhancing action) (Hartley male guinea pigs [1]; listed as Dexmedetomidine hydrochloride) [nM]
1 | CNCC(O)c1ccc(O)c(O)c1 (stereo not drawn) [adrenaline] | 5910 | 5910 | 2960 | 788 | – | – | –
2 | Cc1cccc([C@H](C)c2cnc[nH]2)c1C [dexmedetomidine hydrochloride, Dexmedetomidine hydrochloride] | – | – | 39.2 | 11.3 | tended to suppress the peripheral vasoconstriction action of adrenaline | 78.3 | 78.3
